IC50 and Ki data for 27 molecules are collected here from patent US8916593B2, “Alkoxy-substituted 2-aminopyridines as ALK inhibitors” (Pfizer Inc., priority 2010, dated 2014).

One experiment concerns the target T1, cMet enzyme (Homo sapiens, UniProt P08581).
T1 construct: RTC Lot#032006
Put plainly: cMet enzymatic activity assay. The class given is biochemical. To be noted: purified cMet enzyme 7.5 nM, ATP 17 μM (Km). The procedure:
cMet Enzymatic Activity Assay
Compounds were added at a final concentration of 2% DMSO in half-log dilutions, starting at 20 μM final concentration. The reactions were initiated by addition of 10 μL of peptide/ATP mix to 10 μL enzyme and 5 μL of compound in 384-well plate. […] Substrate and phosphorylated product were separated with an upstream voltage of −2650 V, a downstream voltage of −500V, and a screen pressure of −1.5 psi. The relative peak heights of substrate and product were measured and ratios were calculated using HTS Well Analyzer Software version 5.2.43 from the manufacturer.

Experiment [1] has as its target T2, human recombinant wild-type ALK kinase domain (amino acids 1093-1411) (Homo sapiens, UniProt Q9UM73).
T2 construct: ALK kinase domain (amino acids 1093-1411); made in house
As to the kind of experiment: ALK enzyme assay 2 (microfluidic mobility shift assay).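 Note: kinase reaction run 1 h at room temperature, conversion quantified by electrophoretic separation of fluorescent peptide substrate from phosphorylated product, about 15-20% turnover without inhibitor.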 It is filed as biochemical.
Method: The reactions were incubated for 1 h at room temperature, stopped by the addition of 0.1 M EDTA, pH 8, and the extent of reactions (˜15-20% conversion with no inhibitor) was determined after electrophoretic separation of the fluorescently labeled peptide substrate and phosphorylated product on an LabChip EZ Reader II (Caliper Life Sciences, Hopkinton, Mass.).

Experiment [2] addresses EML4-ALK wt v1 in NIH-3T3 cells (Homo sapiens, UniProt Q9UM73).

Each structure is given as a SMILES string. Bounds are passed on as bounds.

T2 sequence (Q9UM73 1093-1411): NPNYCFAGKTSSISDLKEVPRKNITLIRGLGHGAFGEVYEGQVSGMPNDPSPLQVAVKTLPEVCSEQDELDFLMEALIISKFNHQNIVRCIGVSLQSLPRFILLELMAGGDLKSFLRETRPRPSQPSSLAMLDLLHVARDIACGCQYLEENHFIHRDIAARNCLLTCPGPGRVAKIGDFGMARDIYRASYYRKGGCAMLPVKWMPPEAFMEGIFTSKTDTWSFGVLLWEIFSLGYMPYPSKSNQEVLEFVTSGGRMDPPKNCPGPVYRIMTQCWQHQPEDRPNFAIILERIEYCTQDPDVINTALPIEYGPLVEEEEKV
T1 sequence (P08581 25-1390): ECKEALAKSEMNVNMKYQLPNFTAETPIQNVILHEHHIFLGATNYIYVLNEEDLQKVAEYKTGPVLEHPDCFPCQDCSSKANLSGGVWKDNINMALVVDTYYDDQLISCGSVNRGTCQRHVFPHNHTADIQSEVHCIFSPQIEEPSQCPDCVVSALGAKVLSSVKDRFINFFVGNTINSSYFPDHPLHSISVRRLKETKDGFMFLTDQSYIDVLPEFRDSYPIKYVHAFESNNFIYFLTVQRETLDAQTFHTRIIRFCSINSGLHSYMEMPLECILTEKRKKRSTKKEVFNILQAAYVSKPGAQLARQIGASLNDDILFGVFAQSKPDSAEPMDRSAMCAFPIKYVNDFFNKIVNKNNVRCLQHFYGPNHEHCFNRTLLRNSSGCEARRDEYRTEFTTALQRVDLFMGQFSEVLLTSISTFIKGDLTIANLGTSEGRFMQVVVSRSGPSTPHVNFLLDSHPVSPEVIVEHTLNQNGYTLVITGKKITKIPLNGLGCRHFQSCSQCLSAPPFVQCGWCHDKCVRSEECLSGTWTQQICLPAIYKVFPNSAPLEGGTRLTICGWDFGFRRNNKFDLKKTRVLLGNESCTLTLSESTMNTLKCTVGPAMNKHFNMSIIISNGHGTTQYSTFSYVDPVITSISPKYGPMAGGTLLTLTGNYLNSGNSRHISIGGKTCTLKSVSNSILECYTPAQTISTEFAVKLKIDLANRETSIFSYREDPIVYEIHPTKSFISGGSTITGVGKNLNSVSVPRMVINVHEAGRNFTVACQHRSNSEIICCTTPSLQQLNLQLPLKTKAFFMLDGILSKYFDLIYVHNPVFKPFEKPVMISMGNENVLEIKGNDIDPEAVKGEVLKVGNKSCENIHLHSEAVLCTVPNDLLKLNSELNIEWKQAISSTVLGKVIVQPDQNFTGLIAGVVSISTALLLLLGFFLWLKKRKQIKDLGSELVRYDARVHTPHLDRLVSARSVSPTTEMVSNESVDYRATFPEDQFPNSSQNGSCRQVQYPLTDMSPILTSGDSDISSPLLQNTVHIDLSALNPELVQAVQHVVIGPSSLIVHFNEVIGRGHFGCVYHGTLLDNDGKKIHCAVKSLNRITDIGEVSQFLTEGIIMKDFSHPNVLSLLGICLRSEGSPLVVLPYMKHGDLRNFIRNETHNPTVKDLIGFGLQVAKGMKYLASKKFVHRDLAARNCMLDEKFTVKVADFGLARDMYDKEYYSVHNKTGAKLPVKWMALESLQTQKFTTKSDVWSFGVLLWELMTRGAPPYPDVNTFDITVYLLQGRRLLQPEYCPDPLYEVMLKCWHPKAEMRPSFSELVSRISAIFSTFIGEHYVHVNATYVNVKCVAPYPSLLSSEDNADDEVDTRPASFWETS
Sequence of EML4-ALK wt v1 in NIH-3T3 cells (Q9UM73 with tags, fused parts or gaps): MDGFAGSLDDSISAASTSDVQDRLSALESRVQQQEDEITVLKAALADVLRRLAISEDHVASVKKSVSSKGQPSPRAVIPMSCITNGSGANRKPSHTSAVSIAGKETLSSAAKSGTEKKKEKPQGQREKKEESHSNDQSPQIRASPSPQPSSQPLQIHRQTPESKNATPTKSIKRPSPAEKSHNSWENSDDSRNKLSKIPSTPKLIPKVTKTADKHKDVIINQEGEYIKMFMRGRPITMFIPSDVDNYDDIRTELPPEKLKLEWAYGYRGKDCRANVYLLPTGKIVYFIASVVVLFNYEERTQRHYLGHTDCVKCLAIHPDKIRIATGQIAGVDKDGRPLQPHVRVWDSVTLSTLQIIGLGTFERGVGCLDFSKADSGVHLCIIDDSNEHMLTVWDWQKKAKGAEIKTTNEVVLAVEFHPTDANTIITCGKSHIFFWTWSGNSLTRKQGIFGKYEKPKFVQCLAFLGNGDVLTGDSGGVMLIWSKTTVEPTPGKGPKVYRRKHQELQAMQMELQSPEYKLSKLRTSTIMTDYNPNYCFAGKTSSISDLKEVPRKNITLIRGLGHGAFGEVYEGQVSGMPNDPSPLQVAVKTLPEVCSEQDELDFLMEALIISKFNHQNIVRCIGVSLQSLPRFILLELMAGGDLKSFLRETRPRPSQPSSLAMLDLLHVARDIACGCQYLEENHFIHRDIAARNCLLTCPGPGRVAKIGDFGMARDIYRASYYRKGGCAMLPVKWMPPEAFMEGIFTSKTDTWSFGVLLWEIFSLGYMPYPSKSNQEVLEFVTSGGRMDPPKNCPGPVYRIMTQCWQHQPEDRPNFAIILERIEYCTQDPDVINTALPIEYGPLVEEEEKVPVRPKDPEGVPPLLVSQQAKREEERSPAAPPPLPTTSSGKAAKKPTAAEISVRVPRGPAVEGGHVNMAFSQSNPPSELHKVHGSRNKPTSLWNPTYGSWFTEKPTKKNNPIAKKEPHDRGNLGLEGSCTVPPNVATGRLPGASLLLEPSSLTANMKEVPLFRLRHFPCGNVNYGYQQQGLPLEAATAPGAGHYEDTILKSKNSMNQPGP

In the case of `C[C@@H](Oc1cc(-c2cnnn2C)cnc1N)c1cc(F)ccc1-n1nccn1` [Example 21, 3-{(1R)-1-[5-fluoro-2-(2H-1,2,3-triazol-2-yl)phenyl]-ethoxy)-5-(1-methyl-1H-1,2,3-triazol-5-yl)pyridin-2-amine], the IC50 against cMet enzyme is 14400 nM.

Molecule `C[C@@H](Oc1cc(-c2ccnn2C)cnc1N)c1cc(F)ccc1-n1nccn1` [Example 30, 3-{(1R)-1-[5-fluoro-2-(2H-1,2,3-triazol-2-yl)phenyl]ethoxy}-5-(1-methyl-1H-pyrazol-5-yl)pyridin-2-amine] registered an IC50 against cMet enzyme of 6110 nM.

Consider `CC(Oc1cc(-c2ccnn2C)cnc1N)c1cc(F)ccc1-n1nccn1` (stereo not shown) [Example 31, 3-{1-[5-fluoro-2-(2H-1,2,3-triazol-2-yl)phenyl]-ethoxy)-5-(1-methyl-1H-pyrazol-5-yl)pyridin-2-amine], for which 13000 nM corresponded to half-maximal inhibition against cMet enzyme (IC50).

Turning to `Cc1[nH]ncc1-c1cnc(N)c(OC(C)c2cc(F)ccc2F)c1` (stereo not shown) [Example 35, 3-[1-(2,5-difluorophenyl)ethoxy]-5-(5-methyl-1H-pyrazo-4-yl)pyridin-2-amine], at cMet enzyme, it took 5610 nM to reach half-maximal inhibition (IC50).

As to `Cc1n[nH]cc1-c1cnc(N)c(OC(C)c2cc(F)ccc2C#N)c1` (stereo not shown) [Example 38, 2-(1-{[2-amino-5-(3-methyl-1H-pyrazol-4-yl)pyridin-3-yl]oxy}ethyl)-4-fluorobenzonitrile], the IC50 on cMet enzyme was determined as 4050 nM.

`C[C@@H](Oc1cc(-c2ccc(OC3CCNCC3)nc2)cnc1N)c1cc(F)ccc1-n1nccn1` [Example 122, 5-{(1R)-1-[5-fluoro-2-(2H-1,2,3-triazol-2-yl)phenyl]ethoxy}-6′-(piperidin-4-yloxy)-3,3′-bipyridin-6-amine]: the Ki in experiment [1] was less than 0.2 nM. This molecule had an IC50 in experiment [2] of 1.15 nM.

Regarding `Cc1nn(C2CCNCC2)cc1-c1cnc(N)c(O[C@H](C)c2cc(F)ccc2-n2nccn2)c1` [Example 124, 3-{(1R)-1-[5-fluoro-2-(2H-1,2,3-triazol-2-yl)phenyl]ethoxy}-5-[3-methyl-1-(piperidin-4-yl)-1H-pyrazol-4-yl]pyridin-2-amine], the Ki in experiment [1] was less than 0.2 nM. Moreover, the IC50 in experiment [2] was 2.04 nM.

On to `Cc1c(-c2cnc(N)c(O[C@H](C)c3cc(F)ccc3-n3nccn3)c2)cnn1C1CCNCC1` [Example 125, 3-{(1R)-1-[5-fluoro-2-(2H-1,2,3-triazol-2-yl)phenyl]ethoxy}-5-[5-methyl-1-(piperidin-4-yl)-1H-pyrazol-4-yl]pyridin-2-amine], for which, in experiment [1], the inhibition constant Ki was less than 0.2 nM. In addition, in experiment [2], 3.7 nM corresponded to half-maximal inhibition (IC50).

As to `Cc1n[nH]c(C)c1-c1cnc(N)c(O[C@H](C)c2cc(F)ccc2-n2nccn2)c1` [Example 126, 5-(3,5-Dimethyl-1H-pyrazol-4-yl)-3-{(1R)-1-[5-fluoro-2-(2H-1,2,3-triazol-2-yl)phenyl]ethoxy}pyridin-2-amine], the inhibition constant Ki in experiment [1] was less than 0.193 nM. In experiment [2], this molecule showed an IC50 of 12.1 nM.

Take `Cc1nn([C@H]2CCS(=O)(=O)C2)c(C)c1-c1cnc(N)c(O[C@H](C)c2cc(F)ccc2-n2nccn2)c1` [Example 127, 5-{1-[(3S)-1,1-dioxidotetrahydrothiophen-3-yl]-3,5-dimethyl-1H-pyrazol-4-yl}-3-{(1R)-1-[5-fluoro-2-(2H-1,2,3-triazol-2-yl)phenyl]ethoxy}pyridin-2-amine]: the Ki in experiment [1] is less than 0.2 nM. The IC50 in experiment [2] came out at 2.54 nM.

For `C[C@@H](Oc1cc(-c2cnn(C3CCN(C(=O)CN(C)C)CC3)c2)cnc1N)c1cc(F)ccc1-n1nccn1` [Example 128, 1-{4-[4-(6-amino-5-{(1R)-1-[5-fluoro-2-(2H-1,2,3-triazol-2-yl)phenyl]ethoxy}pyridin-3-yl)-1H-pyrazol-1-yl]piperidin-1-yl}-2-(dimethylamino)ethanone], the Ki in experiment [1] is less than 0.2 nM. In experiment [2], this molecule gave an IC50 of 9.8 nM.

For `C[C@@H](Oc1cc(-c2ccnc(F)c2F)cnc1N)c1cc(F)ccc1-n1nccn1` [Example 129, 2′,3′-difluoro-5-{(1R)-1-[5-fluoro-2-(2H-1,2,3-triazol-2-yl)phenyl]ethoxy}-3,4′-bipyridin-6-amine], the Ki in experiment [1] worked out at 5.5 nM. In experiment [2], this molecule had an IC50 of 223 nM.

As to `C[C@@H](Oc1cc(-c2ccnc(N3CC(O)C3)c2F)cnc1N)c1cc(F)ccc1-n1nccn1` [Example 130, 1-(6-amino-3′-fluoro-5-{(1R)-1-[5-fluoro-2-(2H-1,2,3-triazol-2-yl)phenyl]ethoxy}-3,4′-bipyridin-2′-yl)azetidin-3-ol], the Ki in experiment [1] was 0.26 nM. In experiment [2], this molecule yielded an IC50 of 2.25 nM.

As for `C[C@@H](Oc1cc(-c2ccnc(N3CCOCC3)c2F)cnc1N)c1cc(F)ccc1-n1nccn1` [Example 131, 3′-fluoro-5-{(1R)-1-[5-fluoro-2-(2H-1,2,3-triazol-2-yl)phenyl]ethoxy}-2′-(morpholin-4-yl)-3,4′-bipyridin-6-amine], the Ki in experiment [1] was determined as 0.638 nM. The concentration for half-maximal inhibition (IC50) in experiment [2] was 17.6 nM.

Consider `C[C@@H](Oc1cc(-c2ccnc(N3CCN(C)CC3)c2F)cnc1N)c1cc(F)ccc1-n1nccn1` [Example 132, 3′-fluoro-5-{(1R)-1-[5-fluoro-2-(2H-1,2,3-triazol-2-yl)phenyl]ethoxy}-2,-(4-methylpiperazin-1-yl)-3,4′-bipyridin-6-amine], for which, in experiment [1], the Ki is less than 0.2 nM. Further, the IC50 in experiment [2] is 5.67 nM.

Turning to `COc1ccc(F)cc1C(C)Oc1cc(-c2nsc(S(C)(=O)=O)n2)cnc1N` (stereo not shown) [Example 133, 3-[1-(5-fluoro-2-methoxyphenyl)ethoxy]-5-[5-(methylsulfonyl)-1,2,4-thiadiazol-3-yl]pyridin-2-amine], the Ki in experiment [1] was 1.28 nM. In experiment [2], this molecule returned an IC50 of 687 nM.

With `CNCc1ccc(-c2cnc(N)c(OC(C)c3cc(F)ccc3OC)c2)cc1S(C)(=O)=O` (stereo not shown) [Example 134, 3-[1-(5-fluoro-2-methoxyphenyl)ethoxy]-5-{4-[(methylamino)methyl]-3-(methylsulfonyl)phenyl}pyridin-2-amine], in experiment [1], the Ki was determined as 0.12 nM. Also, the midpoint of inhibition in experiment [2], the IC50, lay at 9.1 nM.

As for `COc1ccc(F)cc1C(C)Oc1cc(-c2ccc(CO)c(S(C)(=O)=O)c2)cnc1N` (stereo not shown) [Example 136, [4-{6-amino-5-[1-(5-fluoro-2-methoxyphenyl)ethoxy]pyridin-3-yl}-2-(methylsulfonyl)phenyl]methanol], the Ki in experiment [1] was found to be 0.26 nM. This molecule also had an IC50 in experiment [2] of 8.6 nM.

In the case of `COc1ccc(F)cc1C(C)Oc1cc(-c2sc(CO)nc2C)cnc1N` (stereo not shown) [Example 137, (5-{6-amino-5-[1-(5-fluoro-2-methoxyphenyl)ethoxy]pyridin-3-yl}-4-methyl-1,3-thiazol-2-yl)methanol], the Ki in experiment [1] was 0.398 nM. Moreover, the IC50 in experiment [2] was determined as 2.59 nM.

As for `COc1ccc(F)cc1C(C)Oc1cc(-c2ccc(C(C)N)nc2)cnc1N` (stereo not shown) [Example 138, 6′-(1-aminoethyl)-5-[1-(5-fluoro-2-methoxyphenyl)ethoxy]-3,3′-bipyridin-6-amine], the Ki in experiment [1] amounted to 0.32 nM. 8.33 nM corresponded to half-maximal inhibition in experiment [2] (IC50).

With `Cc1nn(C2CCNC2=O)cc1-c1cnc(N)c(O[C@H](C)c2cc(F)ccc2-n2nccn2)c1` (stereo partly drawn) [Example 139, 3-[4-(6-amino-5-{(1R)-1-[5-fluoro-2-(2H-1,2,3-triazol-2-yl)phenyl]ethoxy}pyridin-3-yl)-3-methyl-1H-pyrazol-1-yl]pyrrolidin-2-one], in experiment [1], the Ki was less than 0.2 nM. Also, it took 2.82 nM to reach half-maximal inhibition in experiment [2] (IC50).

Consider `C[C@@H](Oc1cc(-c2cn([C@@H]3C[C@H]4CC[C@@H](C3)N4)nc2C#N)cnc1N)c1cc(F)ccc1-n1nccn1` [Example 140, 4-(6-amino-5-{(1R)-1-[5-fluoro-2-(2H-1,2,3-triazol-2-yl)phenyl]ethoxy}pyridin-3-yl)-1-[(3-exo)-8-azabicyclo[3.2.1]oct-3-yl]-1H-pyrazole-3-carbonitrile], for which the Ki in experiment [1] is less than 0.2 nM. This molecule returned an IC50 in experiment [2] of 15.9 nM.

Take `C[C@@H](Oc1cc(-c2cnn([C@@H]3C[C@H]4CC[C@@H](C3)N4)c2C#N)cnc1N)c1cc(F)ccc1-n1nccn1` [Example 141, 4-(6-amino-5-{(1R)-1-[5-fluoro-2-(2H-1,2,3-triazol-2-yl)phenyl]ethoxy}pyridin-3-yl)-1-[(3-exo)-8-azabicyclo[3.2.1]oct-3-yl]-1H-pyrazole-5-carbonitrile]: the Ki in experiment [1] was less than 0.2 nM. For the same molecule, the IC50 in experiment [2] came out at 3.5 nM.

Consider `CNS(=O)(=O)c1cc(-c2cnc(N)c(O[C@H](C)c3cc(F)ccc3-n3nccn3)c2)ccc1OC` [Example 142, 5-(6-amino-5-{(1R)-1-[5-fluoro-2-(2H-1,2,3-triazol-2-yl)phenyl]ethoxy}pyridin-3-yl)-2-methoxy-N-methylbenzenesulfonamide], for which the Ki in experiment [1] is less than 0.2 nM. For the same molecule, the IC50 in experiment [2] is 3.75 nM.

`CNS(=O)(=O)c1ccc(OC)c(-c2cnc(N)c(O[C@H](C)c3cc(F)ccc3-n3nccn3)c2)c1` [Example 143, 3-(6-amino-5-{(1R)-1-[5-fluoro-2-(2H-1,2,3-triazol-2-yl)phenyl]ethoxy}pyridin-3-yl)-4-methoxy-N-methylbenzenesulfonamide]: in experiment [1], the Ki was less than 0.2 nM. For the same molecule, the half-inhibitory concentration (IC50) in experiment [2] amounted to 8.98 nM.

As for `COc1ccc(-c2cnc(N)c(O[C@H](C)c3cc(F)ccc3-n3nccn3)c2)cc1S(N)(=O)=O` [Example 144, 5-(6-amino-5-{(1R)-1-[5-fluoro-2-(2H-1,2,3-triazol-2-yl)phenyl]ethoxy}pyridin-3-yl)-2-methoxybenzenesulfonamide], in experiment [1], the Ki is less than 0.2 nM. In experiment [2], this molecule yielded an IC50 of 2.45 nM.

For `CCc1nc(CS(C)(=O)=O)sc1-c1cnc(N)c(O[C@H](C)c2cc(F)ccc2-n2nccn2)c1` [Example 145, (R)-5-(4-ethyl-2-((methylsulfonyl)methyl)thiazol-5-yl)-3-(1-(5-fluoro-2-(2H-1,2,3-triazol-2-yl)phenyl)ethoxy)pyridin-2-amine], the Ki in experiment [1] is less than 0.2 nM. Further, inhibition in experiment [2] was half-maximal at 10.5 nM (IC50).

As a reminder, the IC50 is the concentration needed to halve the response being measured. The low end stands for greater potency, the high end for weaker potency. Usually Ki stands for a dissociation constant, usually derived from enzyme kinetics or from competition with a known ligand.
